Data on 9 compounds can be found in ChEMBL document CHEMBL1944614, “A scaffold hopping approach to identify novel monoamine oxidase B inhibitors” (Bioorg Med Chem Lett, 2012).

A value given as a limit tells only on which side of the number the result lay.

In the first data set the target is T1, Amine oxidase [flavin-containing] B (Homo sapiens, UniProt P27338).
T1 sequence (P27338 whole entry): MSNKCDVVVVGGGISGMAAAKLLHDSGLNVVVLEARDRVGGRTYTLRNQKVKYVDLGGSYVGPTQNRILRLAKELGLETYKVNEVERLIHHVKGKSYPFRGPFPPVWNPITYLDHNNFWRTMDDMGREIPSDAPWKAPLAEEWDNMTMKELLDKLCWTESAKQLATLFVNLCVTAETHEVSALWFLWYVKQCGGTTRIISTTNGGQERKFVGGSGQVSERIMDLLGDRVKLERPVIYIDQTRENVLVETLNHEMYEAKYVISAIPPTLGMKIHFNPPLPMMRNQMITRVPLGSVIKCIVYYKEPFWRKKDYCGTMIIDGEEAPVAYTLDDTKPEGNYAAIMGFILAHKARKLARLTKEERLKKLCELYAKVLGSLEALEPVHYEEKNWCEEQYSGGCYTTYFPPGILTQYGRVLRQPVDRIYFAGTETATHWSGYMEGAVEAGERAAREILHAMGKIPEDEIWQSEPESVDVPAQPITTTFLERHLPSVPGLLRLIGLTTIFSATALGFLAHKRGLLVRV
The experiment in a line: Competitive inhibition of human recombinant MAOB by Lineweaver-Burk plot analysis.
In the case of `O=C1NC(=O)/C(=C\c2ccc(Br)cc2)S1`, the “inhibition (INH)” value is given as “Active”.

A further data set has as its target T2, Amine oxidase [flavin-containing] A (Homo sapiens, UniProt P21397).
T2 sequence (P21397 whole entry): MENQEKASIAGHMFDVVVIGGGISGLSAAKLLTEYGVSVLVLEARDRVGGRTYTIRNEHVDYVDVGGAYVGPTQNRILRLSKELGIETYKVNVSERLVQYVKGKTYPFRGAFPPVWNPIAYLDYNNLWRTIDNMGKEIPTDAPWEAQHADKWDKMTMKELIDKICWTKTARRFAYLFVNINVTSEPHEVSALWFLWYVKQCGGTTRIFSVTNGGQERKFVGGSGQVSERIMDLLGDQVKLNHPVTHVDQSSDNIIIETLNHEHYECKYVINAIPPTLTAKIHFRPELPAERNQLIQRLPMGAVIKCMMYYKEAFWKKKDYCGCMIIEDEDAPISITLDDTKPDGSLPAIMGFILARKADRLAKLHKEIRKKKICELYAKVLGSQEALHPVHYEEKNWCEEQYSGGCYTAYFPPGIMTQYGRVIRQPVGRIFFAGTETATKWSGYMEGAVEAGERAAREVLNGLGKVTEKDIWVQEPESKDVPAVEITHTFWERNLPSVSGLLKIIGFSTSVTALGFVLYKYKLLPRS
The experiment in a line: Inhibition of human recombinant MAOA using kynuramine as substrate by fluorimetry.
Take `CN(C)c1ccc(/C=C2\Oc3cc(O)ccc3C2=O)cc1`: the IC50 amounted to 0.979 µM.

For `O=C1NC(=O)/C(=C\c2ccc(Br)cc2)S1`, the half-inhibitory concentration (IC50) was 43.5 µM.

Take `CN(C)c1ccc(/C=C2\Oc3ccccc3C2=O)cc1`: the IC50 came out at 0.268 µM.

With `Cc1ccc2c(c1)O/C(=C\c1ccccc1)C2=O`, the IC50 worked out at 40.2 µM.

In the case of `COc1ccc(NC(=O)N2CCc3ccccc32)cc1`, the concentration for half-maximal inhibition (IC50) is above 100 µM.

As for `Cc1[nH]n(-c2ccccc2)c(=O)c1/C=N/NC(=O)c1cccnc1`, the IC50 was above 100 µM.

On to `O=C1/C(=C/c2ccccc2O)Oc2cc(O)ccc21`, for which the IC50 amounted to 17.7 µM.

With `CCOC1CC(c2ccccc2)=NN1c1ccc([N+](=O)[O-])cc1` (stereo not drawn), the IC50 was 5.36 µM.

As to `O=C1/C(=C/c2ccc(Cl)cc2)Oc2ccccc21`, the IC50 came to 0.709 µM.

The target of another data set is T1, Amine oxidase [flavin-containing] B. The experiment in a line: Inhibition of human recombinant MAOB using kynuramine as substrate by fluorimetry.
For `O=C1NC(=O)/C(=C\c2ccc(Br)cc2)S1`, the IC50 is 0.228 µM.

With `CN(C)c1ccc(/C=C2\Oc3ccccc3C2=O)cc1`, the IC50 was found to be 0.099 µM.

As to `Cc1ccc2c(c1)O/C(=C\c1ccccc1)C2=O`, the IC50 is 3.35 µM.

On to `COc1ccc(NC(=O)N2CCc3ccccc32)cc1`, for which the IC50 is 2.62 µM.

On to `Cc1[nH]n(-c2ccccc2)c(=O)c1/C=N/NC(=O)c1cccnc1`, for which the IC50 is 13.3 µM.

As for `O=C1/C(=C/c2ccccc2O)Oc2cc(O)ccc21`, the IC50 worked out at 11.5 µM.

For `CCOC1CC(c2ccccc2)=NN1c1ccc([N+](=O)[O-])cc1` (stereo not drawn), the half-maximal inhibitory concentration (IC50) was 0.921 µM.

Turning to `O=C1/C(=C/c2ccc(Cl)cc2)Oc2ccccc21`, the IC50 was found to be 0.305 µM.
